Results on one compound are retold here after ChEMBL document CHEMBL5380850, “Discovery of the First Raptor (Regulatory-Associated Protein of mTOR) Inhibitor as a New Type of Antiadipogenic Agent” (J Med Chem, 2023).

Active and inactive are the calls of the source. The rule behind the calls is not given here.

Test [1] deals with 3T3-L1. The test is described as follows: Anti-adipogenic activity against mouse 3T3-L1 cells assessed as downregulation of ACC mRNA expression level at 0.1 to 1 uM incubated for 6 days by RT-qPCR analysis. The test is classed as functional, cell-based. To be noted: dose 0.1-1 µM, time 6.0 day. A general note: Real-time PCR tracks product formation cycle by cycle.
The subject of test [2] is 3T3-L1. The test is described as follows: Anti-adipogenic activity against mouse 3T3-L1 cells assessed as downregulation of C/EBPalpha protein expression level at 0.1 to 1 uM incubated for 24 hrs by Western blot analysis. The test is classed as functional, cell-based. The conditions noted are these: dose 0.1-1 µM. On the technique in general: Immunoblotting shows a protein as a band on a membrane.

The subject of test [3] is 3T3-L1. Description: Anti-adipogenic activity against mouse 3T3-L1 cells assessed as downregulation of C/EBPbeta protein expression level at 0.1 to 1 uM incubated for 24 hrs by Western blot analysis. The format is functional, cell-based. To be noted: dose 0.1-1 µM.
Test [4] concerns 3T3-L1. Description: Anti-adipogenic activity against mouse 3T3-L1 cells assessed as downregulation of C/EBPdelta protein expression level at 0.1 to 1 uM incubated for 24 hrs by Western blot analysis. The format is functional, cell-based. To be noted: dose 0.1-1 µM.
Test [5] has as its system 3T3-L1. The test is described as follows: Anti-adipogenic activity against mouse 3T3-L1 cells assessed as downregulation of DGAT2 protein expression level at 0.1 to 1 uM incubated for 6 days by Western blot analysis. The format is functional, cell-based. To be noted: dose 0.1-1 µM, time 6.0 day.
The test system of test [6] is Mus musculus. Description: Anti-obesity activity in high fat diet-induced obese C57BL/6J mouse model assessed as reduction in triglyceride level at 40 mg/kg, ip administered every two days for 46 days. The format is functional, organism-based. The conditions noted are these: time 46.0 day.
The subject of test [7] is Mus musculus. The test is described as follows: Anti-obesity activity in high fat diet-induced obese C57BL/6J mouse model assessed as reduction in plasma AST level at 40 mg/kg, ip administered every two days for 46 days. The test is classed as functional, organism-based. To be noted: time 46.0 day.
Test [8] concerns Mus musculus. Description: Anti-obesity activity in high fat diet-induced obese C57BL/6J mouse model assessed as increase in PGC-1alpha expression level in liver at 40 mg/kg, ip administered every two days for 46 days by immunohistochemical analysis. The test is classed as functional, organism-based. To be noted: time 46.0 day.
For test [9], the system named is Mus musculus. Description: In vivo inhibition of mTOR signalling in high fat diet-induced obese C57BL/6J mouse model assessed as decrease in mTOR phosphorylation at S2481 in liver at 40 mg/kg, ip administered every two days for 46 days by Western blot analysis. The format is functional, organism-based. The conditions noted are these: time 46.0 day.
For test [10], the target named is mTORC1 (Mus musculus) (UniProt Q9JLN9). The test is described as follows: Inhibition of mTORC1 formation in mouse 3T3-L1 cells assessed as mTOR expression level at 10 uM incubated for 24 hrs by reciprocal co-immunoprecipitation assay. The test is classed as cell-based.
Test [11] has the same target. Description: Inhibition of mTORC1 formation in mouse 3T3-L1 cells assessed as decrease in Raptor/mTOR interaction at 10 uM incubated for 24 hrs by reciprocal co-immunoprecipitation assay. The test is classed as cell-based.
Test [12] has the same target. The test is described as follows: Inhibition of mTORC1 formation in mouse 3T3-L1 cells assessed as decrease in phosphorylated-S6K1 expression level at 10 uM incubated for 24 hrs by Western blot analysis. The format is cell-based.
Test [13] shares this target. Description: Inhibition of mTORC1 formation in siRNA mediated Raptor knockdown mouse 3T3-L1 cells assessed as decrease in S6K1 expression level at 10 uM incubated for 24 hrs by Western blot analysis. The test is classed as cell-based.
Test [14] concerns the target Regulatory-associated protein of mTOR (Mus musculus) (UniProt Q8K4Q0). The test is described as follows: Binding affinity to Raptor in mouse 3T3-L1 cells at 50 uM incubated overnight by pull-down assay.

Chain of Regulatory-associated protein of mTOR (Mus musculus) (Q8K4Q0 whole entry, looked up): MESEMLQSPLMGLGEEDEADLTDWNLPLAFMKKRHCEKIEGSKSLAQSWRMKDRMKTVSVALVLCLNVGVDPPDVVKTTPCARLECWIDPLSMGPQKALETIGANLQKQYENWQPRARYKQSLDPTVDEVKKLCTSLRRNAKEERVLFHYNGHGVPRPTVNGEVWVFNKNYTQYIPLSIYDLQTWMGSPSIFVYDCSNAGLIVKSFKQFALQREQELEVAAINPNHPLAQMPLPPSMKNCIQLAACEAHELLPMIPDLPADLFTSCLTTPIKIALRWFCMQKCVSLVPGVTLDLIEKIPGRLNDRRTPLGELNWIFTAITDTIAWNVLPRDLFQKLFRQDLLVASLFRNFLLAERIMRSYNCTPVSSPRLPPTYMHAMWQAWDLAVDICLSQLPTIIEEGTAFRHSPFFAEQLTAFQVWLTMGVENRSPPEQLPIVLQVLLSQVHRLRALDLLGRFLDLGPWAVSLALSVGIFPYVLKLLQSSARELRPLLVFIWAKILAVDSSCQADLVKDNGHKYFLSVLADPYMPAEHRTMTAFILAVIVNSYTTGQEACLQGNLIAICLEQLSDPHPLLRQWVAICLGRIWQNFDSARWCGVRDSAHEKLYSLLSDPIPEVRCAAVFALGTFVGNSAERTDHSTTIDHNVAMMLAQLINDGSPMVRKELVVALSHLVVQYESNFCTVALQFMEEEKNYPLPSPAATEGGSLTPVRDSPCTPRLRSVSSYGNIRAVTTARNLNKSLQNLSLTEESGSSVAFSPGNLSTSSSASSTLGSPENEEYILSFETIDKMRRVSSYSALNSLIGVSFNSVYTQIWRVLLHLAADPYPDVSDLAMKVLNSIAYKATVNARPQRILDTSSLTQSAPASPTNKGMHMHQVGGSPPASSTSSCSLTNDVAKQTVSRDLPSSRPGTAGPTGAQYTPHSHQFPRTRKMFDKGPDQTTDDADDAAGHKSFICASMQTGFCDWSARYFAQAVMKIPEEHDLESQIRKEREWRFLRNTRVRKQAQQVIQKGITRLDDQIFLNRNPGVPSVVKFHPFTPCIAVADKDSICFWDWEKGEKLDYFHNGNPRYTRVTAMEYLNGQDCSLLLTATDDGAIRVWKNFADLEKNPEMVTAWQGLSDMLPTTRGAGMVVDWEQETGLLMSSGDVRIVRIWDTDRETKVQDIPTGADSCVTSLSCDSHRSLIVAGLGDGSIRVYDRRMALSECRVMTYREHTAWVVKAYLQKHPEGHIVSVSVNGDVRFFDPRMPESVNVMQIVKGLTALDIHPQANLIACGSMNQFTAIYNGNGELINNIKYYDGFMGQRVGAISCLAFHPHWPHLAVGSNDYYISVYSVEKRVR

As for `C=C(C)[C@@]12OC3(c4ccccc4)O[C@@H]1[C@@H]1[C@H](O)[C@](Cl)(COC(=O)c4ccccc4)[C@@H](O)[C@]4(O)C(=O)C(C)=C[C@H]4[C@@]1(O3)[C@H](C)[C@H]2OC(C)=O`, the result with 3T3-L1 [1], with 3T3-L1 [2], in the test on 3T3-L1 [3], in the test on 3T3-L1 [4], with 3T3-L1 [5] and in the test with Mus musculus [6] was Active. For the same compound, the outcome (in the test with Mus musculus [7]; in the test with Mus musculus [8]; in test [14]) was Active. Besides, the inhibition result in the test with Mus musculus [9], on mTORC1 (Mus musculus) [10], on mTORC1 (Mus musculus) [12] and on mTORC1 (Mus musculus) [13] was “Active” in each case. Also, at mTORC1 (Mus musculus) [11], the inhibition result is “inactive”.
